Assay results taken from BigSolDB 2.1.

CCOc1ccc(C=O)cc1O
solubility (mole fraction) (in THF, 283.15 K): 0.0523
solubility (mole fraction) (in THF, 288.15 K): 0.0624
solubility (mole fraction) (in THF, 293.15 K): 0.071
solubility (mole fraction) (in THF, 298.15 K): 0.0842
solubility (mole fraction) (in THF, 303.15 K): 0.094
solubility (mole fraction) (in THF, 308.15 K): 0.108
solubility (mole fraction) (in THF, 313.15 K): 0.123
solubility (mole fraction) (in THF, 318.15 K): 0.138
solubility (mole fraction) (in THF, 323.15 K): 0.156
solubility (mole fraction) (in acetone, 283.15 K): 0.0425
solubility (mole fraction) (in acetone, 288.15 K): 0.0467
solubility (mole fraction) (in acetone, 293.15 K): 0.0515
solubility (mole fraction) (in acetone, 298.15 K): 0.057
solubility (mole fraction) (in acetone, 303.15 K): 0.0652
solubility (mole fraction) (in acetone, 308.15 K): 0.0718
solubility (mole fraction) (in acetone, 313.15 K): 0.0819
solubility (mole fraction) (in acetone, 318.15 K): 0.092
solubility (mole fraction) (in acetone, 323.15 K): 0.114
solubility (mole fraction) (in acetonitrile, 283.15 K): 0.0105
solubility (mole fraction) (in acetonitrile, 288.15 K): 0.0133
solubility (mole fraction) (in acetonitrile, 293.15 K): 0.015
solubility (mole fraction) (in acetonitrile, 298.15 K): 0.0191
solubility (mole fraction) (in acetonitrile, 303.15 K): 0.0228
solubility (mole fraction) (in acetonitrile, 308.15 K): 0.0285
solubility (mole fraction) (in acetonitrile, 313.15 K): 0.0353
solubility (mole fraction) (in acetonitrile, 318.15 K): 0.0406
solubility (mole fraction) (in acetonitrile, 323.15 K): 0.0551
solubility (mole fraction) (in ethanol, 283.15 K): 0.0066
solubility (mole fraction) (in ethanol, 288.15 K): 0.0078
solubility (mole fraction) (in ethanol, 293.15 K): 0.0101
solubility (mole fraction) (in ethanol, 298.15 K): 0.012
solubility (mole fraction) (in ethanol, 303.15 K): 0.0141
solubility (mole fraction) (in ethanol, 308.15 K): 0.0179
solubility (mole fraction) (in ethanol, 313.15 K): 0.0224
solubility (mole fraction) (in ethanol, 318.15 K): 0.0276
solubility (mole fraction) (in ethanol, 323.15 K): 0.0345
solubility (mole fraction) (in ethyl acetate, 283.15 K): 0.0166
solubility (mole fraction) (in ethyl acetate, 288.15 K): 0.0194
solubility (mole fraction) (in ethyl acetate, 293.15 K): 0.0212
solubility (mole fraction) (in ethyl acetate, 298.15 K): 0.0259
solubility (mole fraction) (in ethyl acetate, 303.15 K): 0.0288
solubility (mole fraction) (in ethyl acetate, 308.15 K): 0.0361
solubility (mole fraction) (in ethyl acetate, 313.15 K): 0.0416
solubility (mole fraction) (in ethyl acetate, 318.15 K): 0.0511
solubility (mole fraction) (in ethyl acetate, 323.15 K): 0.0606
solubility (mole fraction) (in ethyl formate, 283.15 K): 0.0135
solubility (mole fraction) (in ethyl formate, 288.15 K): 0.0172
solubility (mole fraction) (in ethyl formate, 293.15 K): 0.0196
solubility (mole fraction) (in ethyl formate, 298.15 K): 0.0236
solubility (mole fraction) (in ethyl formate, 303.15 K): 0.0278
solubility (mole fraction) (in ethyl formate, 308.15 K): 0.0341
solubility (mole fraction) (in ethyl formate, 313.15 K): 0.0415
solubility (mole fraction) (in ethyl formate, 318.15 K): 0.0488
solubility (mole fraction) (in ethyl formate, 323.15 K): 0.0605
solubility (mole fraction) (in isopropanol, 283.15 K): 0.0035
solubility (mole fraction) (in isopropanol, 288.15 K): 0.005
solubility (mole fraction) (in isopropanol, 293.15 K): 0.0063
solubility (mole fraction) (in isopropanol, 298.15 K): 0.0082
solubility (mole fraction) (in isopropanol, 303.15 K): 0.01
solubility (mole fraction) (in isopropanol, 308.15 K): 0.0129
solubility (mole fraction) (in isopropanol, 313.15 K): 0.0168
solubility (mole fraction) (in isopropanol, 318.15 K): 0.0216
solubility (mole fraction) (in isopropanol, 323.15 K): 0.0277
solubility (mole fraction) (in isopropyl acetate, 283.15 K): 0.013
solubility (mole fraction) (in isopropyl acetate, 288.15 K): 0.0156
solubility (mole fraction) (in isopropyl acetate, 293.15 K): 0.0187
solubility (mole fraction) (in isopropyl acetate, 298.15 K): 0.0202
solubility (mole fraction) (in isopropyl acetate, 303.15 K): 0.0227
solubility (mole fraction) (in isopropyl acetate, 308.15 K): 0.0274
solubility (mole fraction) (in isopropyl acetate, 313.15 K): 0.0325
solubility (mole fraction) (in isopropyl acetate, 318.15 K): 0.0387
solubility (mole fraction) (in isopropyl acetate, 323.15 K): 0.0457
solubility (mole fraction) (in methanol, 283.15 K): 0.0072
solubility (mole fraction) (in methanol, 288.15 K): 0.0091
solubility (mole fraction) (in methanol, 293.15 K): 0.0119
solubility (mole fraction) (in methanol, 298.15 K): 0.0159
solubility (mole fraction) (in methanol, 303.15 K): 0.0206
solubility (mole fraction) (in methanol, 308.15 K): 0.0268
solubility (mole fraction) (in methanol, 313.15 K): 0.0362
solubility (mole fraction) (in methanol, 318.15 K): 0.0482
solubility (mole fraction) (in methanol, 323.15 K): 0.0635
solubility (mole fraction) (in methyl acetate, 283.15 K): 0.0166
solubility (mole fraction) (in methyl acetate, 288.15 K): 0.0205
solubility (mole fraction) (in methyl acetate, 293.15 K): 0.0263
solubility (mole fraction) (in methyl acetate, 298.15 K): 0.0301
solubility (mole fraction) (in methyl acetate, 303.15 K): 0.0331
solubility (mole fraction) (in methyl acetate, 308.15 K): 0.0409
solubility (mole fraction) (in methyl acetate, 313.15 K): 0.048
solubility (mole fraction) (in methyl acetate, 318.15 K): 0.0557
solubility (mole fraction) (in methyl acetate, 323.15 K): 0.0678
solubility (mole fraction) (in n-propanol, 283.15 K): 0.0048
solubility (mole fraction) (in n-propanol, 288.15 K): 0.0065
solubility (mole fraction) (in n-propanol, 293.15 K): 0.0077
solubility (mole fraction) (in n-propanol, 298.15 K): 0.0098
solubility (mole fraction) (in n-propanol, 303.15 K): 0.0118
solubility (mole fraction) (in n-propanol, 308.15 K): 0.0149
solubility (mole fraction) (in n-propanol, 313.15 K): 0.0194
solubility (mole fraction) (in n-propanol, 318.15 K): 0.0246
solubility (mole fraction) (in n-propanol, 323.15 K): 0.0312
solubility (mole fraction) (in toluene, 283.15 K): 0.0032
solubility (mole fraction) (in toluene, 288.15 K): 0.0037
solubility (mole fraction) (in toluene, 293.15 K): 0.0042
solubility (mole fraction) (in toluene, 298.15 K): 0.0049
solubility (mole fraction) (in toluene, 303.15 K): 0.0057
solubility (mole fraction) (in toluene, 308.15 K): 0.0068
solubility (mole fraction) (in toluene, 313.15 K): 0.0077
solubility (mole fraction) (in toluene, 318.15 K): 0.0092
solubility (mole fraction) (in toluene, 323.15 K): 0.011
